In ChEMBL document CHEMBL6134837, “Synergistic Cancer Therapy: An NIR-Activated Methylene Blue-Nitrogen Mustard Prodrug for Combined Chemotherapy and Photodynamic Therapy” (J Med Chem, 2025):
pIC50: −log10 of the molar value. Calls of active or inactive are those of the source. The rule behind the calls is not given here.

How the values were obtained:
B16-F10 [1] = assay: Induction of DNA damage in mouse B16-F10 cells assessed as green fluorescence in nuclei at 10 uM measured after irradiation with […] light by gamma-H2AX based assay; type: functional, cell-based
B16-F10 [2] = assay: Cytotoxicity against mouse B16-F10 cells assessed as cell viability measured at 10 uM after cells irradiated with 100 mW/cm^2, 660 nm light irradiation for 15 mins followed by measured after 48 hrs incubation by MTT assay relative to control; type: functional; settings: B16-F10, light or radiation study, read-out: Activity
B16-F10 [3] = assay: Induction of apoptosis in mouse B16-F10 cells assessed as viable cells at 10 uM measured after 8 hrs followed by irradiated (100 mW/cm^2) for 15 mins by annexin VFITC (AV)/propidium iodide (PI) based flow cytometry (reference value: 92.2%); type: functional; settings: B16-F10, light or radiation study, read-out: Activity
B16-F10 [4] = assay: Induction of apoptosis in mouse B16-F10 cells assessed as early apoptotic cells at 10 uM measured after 8 hrs followed by irradiated (100 mW/cm^2) for 15 mins by annexin VFITC (AV)/propidium iodide (PI) based flow cytometry (reference value: 1.02%); type: functional
B16-F10 [5] = assay: Induction of apoptosis in mouse B16-F10 cells assessed as late apoptotic cells at 10 uM measured after 8 hrs followed by irradiated (100 mW/cm^2) for 15 mins by annexin VFITC (AV)/propidium iodide (PI) based flow cytometry (reference value: 5.20%); type: functional
B16-F10 [6] = assay: Induction of apoptosis in mouse B16-F10 cells assessed as necrotic cells at 10 uM measured after 8 hrs followed by irradiated (100 mW/cm^2) for 15 mins by annexin VFITC (AV)/propidium iodide (PI) based flow cytometry (reference value: 1.61%); type: functional
[7] = Photoactivation of the compound assessed as release of methylene blue at 10 uM measured after 21 mins under 660 nm laser irradiation; settings: 0.35 h
[8] = Photoactivation of the compound assessed as release of methylene blue by measuring photolysis half-life at 10 uM under 660 nm laser irradiation
[9] = Photoactivation of the compound assessed as fluorescence changes at 10 uM measured after 21 mins under 660 nm laser irradiation relative to under dark condition; settings: 0.35 h
[10] = Stability of the compound measured after 7 days under dark condition; type: physicochemical; settings: 168 h; time 7 day
[11] = Induction of ROS generation in DCFH solution assessed as increase in fluorescent intensity measured under laser irradiation 660 nm for continuous 9 secs; type: functional; settings: time 9.0 sec
[12] = Induction of ROS generation in DCFH solution assessed as increase in fluorescent intensity using 525 nm pre-irradiated compound; type: functional
[13] = Induction of ROS generation in DCFH solution assessed as fold increase in fluorescent intensity using 525 nm pre-irradiated compound relative to non-illuminated condition; type: functional
[14] = Induction of ROS generation assessed as increase in singlet oxygen production using pre-irradiated compound by measuring reduction in ABDA absorption at 378 nm measured for 90 secs; type: functional; set-up: scale not given: the % may be the effect or the level left; settings: time 90.0 sec
[15] = Induction of ROS generation assessed as increase in singlet oxygen production by measuring reduction in ABDA absorption; type: functional
[16] = Induction of ROS generation assessed as superoxide anion production by measuring fold increase in fluorescent intensity of DHR123 using 526 nm pre-irradiated compound relative to non-illuminated condition; type: functional
[17] = Induction of ROS generation assessed as superoxide anion production by measuring increase in fluorescent intensity of DHR123 using 526 nm (using non pre-irradiated condition); type: functional
[18] = Induction of hydroxyl radicals generation before irradiation by coumarin-3-carboxylic acid (3-CCA) assay; type: functional
[19] = Induction of hydroxyl radicals generation after irradiation by coumarin-3-carboxylic acid (3-CCA) assay; type: functional
B16-F10 [20] = assay: Cytotoxicity against mouse B16-F10 cells assessed as cell viability at 1 to 10 uM measured after 48 hrs incubation under dark by MTT assay; type: toxicity, cell-based; settings: b16-f10, 48 h, dose 1-10 µM
B16-F10 [21] = assay: Cytotoxicity against mouse B16-F10 cells assessed as cell viability measured irradiated with 100 mW/cm^2, 660 nm light for 15 mins and measured after 48 hrs incubation by MTT assay; type: functional, cell-based; settings: B16-F10, light or radiation study
B16-F10 [22] = assay: Cytotoxicity against mouse B16-F10 cells assessed as cell death rate measured at 2 uM irradiated with 100 mW/cm^2, 660 nm light for 15 mins and measured after 48 hrs of incubation by MTT assay relative to control; type: functional
B16-F10 [23] = assay: Cytotoxicity against mouse B16-F10 cells assessed as increase in dead cells by measuring red fluorescence at 10 uM measured after cells irradiated with 100 mW/cm^2, 660 nm light irradiation for 15 mins by Calcein-AM/PI staining based photodynamic therapy (PDT) assay; type: functional, cell-based
B16-F10 [24] = assay: Cytotoxicity against mouse B16-F10 cells assessed as cell viability at 10 uM measured absence of irradiation by Calcein-AM/PI staining based assay; type: toxicity; settings: b16-f10, 10 µM
B16-F10 [25] = assay: Cytotoxicity against mouse B16-F10 cells assessed as increase in dead cells by measuring red fluorescence at 10 uM measured after cells irradiated with 100 mW/cm^2, 660 nm light irradiation for 3 to 15 mins by Calcein-AM/PI staining based photodynamic therapy (PDT) assay; type: functional, cell-based; settings: time 3-15 min
B16-F10 [26] = assay: Cytotoxicity against mouse B16-F10 cells assessed as decrease in green fluorescence at 1 to 10 uM measured after cells irradiated with 100 mW/cm^2, 660 nm light irradiation for 15 mins by Calcein-AM/PI staining based photodynamic therapy (PDT) assay; type: functional, cell-based; settings: dose 1-10 µM
B16-F10 [27] = assay: Induction of ROS generation in mouse B16-F10 cells assessed as fluorescence intensity at 10 uM measured co-incubated with DCFH-DA followed by irradiated for 3 to 15 mins; type: functional, cell-based; settings: time 3-15 min
B16-F10 [28] = assay: Induction of ROS generation in mouse B16-F10 cells assessed as increase in intracellular superoxide anion by measuring red fluorescence in nucleus at 10 uM measured co-incubated with dihydroethidium (DHE) followed by irradiated for 3 to 15 mins; type: functional, cell-based; settings: time 3-15 min
B16-F10 [29] = assay: Induction of ROS generation in mouse B16-F10 cells assessed as increase in intracellular singlet oxygen by measuring […] fluorescence in nucleus at 10 uM measured co-incubated with SOSG followed by irradiated for 3 to 15 mins; type: functional, cell-based; settings: time 3-15 min
B16-F10 [30] = assay: Induction of DNA damage in mouse B16-F10 cells assessed as green fluorescence in nuclei measured in absence light at 10 uM by gamma-H2AX based assay; type: functional, cell-based
B16-F10 [31] = assay: Induction of DNA damage in mouse B16-F10 cells assessed as condensed chromatin measured after irradiation with […] light at 10 uM by Hoechst 33342 staining based assay; type: functional, cell-based
B16-F10 [32] = assay: In vivo antitumor activity against mouse B16-F10 cells transplanted in BALB/c mouse model assessed as tumor growth inhibition at 200 uM administered via intratumoural injection followed by irradiated with 660 nm laser irradiation measured on day 1; type: functional, organism-based; settings: route it(Intratumoral), time 1.0 day
B16-F10 [33] = assay: Induction of apoptosis in mouse B16-F10 cells assessed as viable cells at 10 uM measured after 8 hrs by annexin VFITC (AV)/propidium iodide (PI) based flow cytometry (reference value: 92.2%); type: functional; settings: read-out: Activity
B16-F10 [34] = assay: Induction of apoptosis in mouse B16-F10 cells assessed as early apoptotic cells at 10 uM measured after 8 hrs by annexin VFITC (AV)/propidium iodide (PI) based flow cytometry (reference value: 1.02%); type: functional
B16-F10 [35] = assay: Induction of apoptosis in mouse B16-F10 cells assessed as late apoptotic cells at 10 uM measured after 8 hrs by annexin VFITC (AV)/propidium iodide (PI) based flow cytometry (reference value: 5.20%); type: functional
B16-F10 [36] = assay: Induction of apoptosis in mouse B16-F10 cells assessed as necrotic cells at 10 uM measured after 8 hrs by annexin VFITC (AV)/propidium iodide (PI) based flow cytometry (reference value: 1.61%); type: functional
[37] = Toxicity in BALB/c mouse transplanted with mouse B16-F10 cells assessed as body weight change measured at 200 uM administered via intratumoural injection measured after 7 days; settings: in vivo, other, 168 h, route it(Intratumoral), time 7 day
[38] = Drug uptake in BALB/c mouse transplanted with mouse B16-F10 cells assessed as increase in fluorescence intensity at tumor site at 200 uM administered via intratumoural injection followed by irradiated with 660 nm laser measured for 3 to 21 mins by imaging assay; type: ADME; settings: in vivo, other, time 3-21 min, route it(Intratumoral)
B16-F10 [39] = assay: In vivo antitumor activity against mouse B16-F10 cells transplanted in BALB/c mouse model assessed as tumor growth inhibition at 200 uM administered via intratumoural injection followed by irradiated with 660 nm laser irradiation measured for 7 days; type: functional, organism-based; settings: route it(Intratumoral), time 7.0 day
B16-F10 [40] = assay: In vivo antitumor activity against mouse B16-F10 cells transplanted in BALB/c mouse model assessed as inhibition of tumor cells in tumor slice at 200 uM administered via intratumoural injection followed by irradiated with 660 nm laser irradiation measured for 7 days by H and E staining based analysis; type: functional, organism-based; settings: route it(Intratumoral), time 7.0 day
[41] = Hemolysis in healthy mouse RBC assessed as hemolysis rate at 1 to 256 uM measured after 2 hrs incubation by microplate reader; type: toxicity, cell-based, Erythrocyte; settings: mouse red blood cells, dose 1-256 µM, read-out: Activity
[42] = Toxicity in BALB/c mouse transplanted with mouse B16-F10 cells assessed as heart damage measured at 200 uM administered via intratumoural injection measured after 7 days by H and E staining based analysis; type: tissue-based; settings: in vivo, other, 168 h, route it(Intratumoral), time 7 day
[43] = Toxicity in BALB/c mouse transplanted with mouse B16-F10 cells assessed as liver damage measured at 200 uM administered via intratumoural injection measured after 7 days by H and E staining based analysis; type: tissue-based; settings: in vivo, other, 168 h, route it(Intratumoral), time 7 day
[44] = Toxicity in BALB/c mouse transplanted with mouse B16-F10 cells assessed as spleen damage measured at 200 uM administered via intratumoural injection measured after 7 days by H and E staining based analysis; type: tissue-based; settings: in vivo, other, 168 h, route it(Intratumoral), time 7 day
[45] = Toxicity in BALB/c mouse transplanted with mouse B16-F10 cells assessed as lung damage measured at 200 uM administered via intratumoural injection measured after 7 days by H and E staining based analysis; type: tissue-based; settings: in vivo, other, 168 h, route it(Intratumoral), time 7 day
[46] = Toxicity in BALB/c mouse transplanted with mouse B16-F10 cells assessed as kidney damage measured at 200 uM administered via intratumoural injection measured after 7 days by H and E staining based analysis; type: tissue-based; settings: in vivo, other, 168 h, route it(Intratumoral), time 7 day

Structure (SMILES): CN(C)c1ccc2nc3ccc(=[N+](C)C)cc-3sc2c1
- Activity (B16-F10 [1]): Active

Structure (SMILES): CN(C)c1ccc2nc3ccc(N(C)C)cc3[s+]c2c1.[Cl-] [METHYLENE BLUE ANHYDROUS]
- viability at 10 µM (B16-F10 [2]): 22.5%
- viability at 10 µM (B16-F10 [3]): 33.1%
- Activity (B16-F10 [4]): 54.8%
- Activity (B16-F10 [5]): 11.3%
- Activity (B16-F10 [6]): 0.83%

Structure (SMILES): CN(C)c1ccc2c(c1)Sc1cc(N(C)C)ccc1N2C(=O)Nc1ccc(N(CCCl)CCCl)cc1
- Activity [7]: 100%
- t1/2 [8]: 11 min
- fold change (FC) [9]: 7
- Stability [10]: Stable
- Activity [11]: inactive
- Activity [12]: Active
- fold change (FC) [13]: 69
- Activity [14]: 97%
- Activity [15]: inactive
- fold change (FC) [16]: 113
- Activity [17]: inactive
- Activity [18]: inactive
- Activity [19]: inactive
- Activity (B16-F10 [20]): Non-toxic
- pIC50 (B16-F10 [21]): 5.87
- Activity (B16-F10 [22]): 62.2%
- viability at 10 µM (B16-F10 [2]): 9.4%
- Activity (B16-F10 [23]): Active; Almost Exclusively Exhibiting Red Fluorescence Signal
- Activity (B16-F10 [24]): Non-toxic
- Activity (B16-F10 [25]): Active
- Activity (B16-F10 [26]): Active
- Activity (B16-F10 [27]): Active; Fluorescence Intensity Of Dcfh Within Cells Exhibited A Positive Correlation With The Duration Of Light Exposure
- Activity (B16-F10 [28]): Active
- Activity (B16-F10 [29]): Active
- Activity (B16-F10 [1]): Active; Effect Is Higher Compared With Nm And Mb Group
- Activity (B16-F10 [30]): Not active; Compound Showed Only Minimal Green Fluorescence
- Activity (B16-F10 [31]): Active
- Activity (B16-F10 [32]): Active; Compound Exhibit Strong Activity Relative To Mb+Light Group
- viability at 10 µM (B16-F10 [33]): 89.2%
- Activity (B16-F10 [34]): 6.85%
- Activity (B16-F10 [35]): 3.27%
- Activity (B16-F10 [36]): 0.65%
- viability at 10 µM (B16-F10 [3]): 23.8%
- Activity (B16-F10 [4]): 44.8%
- Activity (B16-F10 [5]): 30.9%
- Activity (B16-F10 [6]): 0.45%
- Activity [37]: Non-toxic
- Drug uptake [38]: Active
- Activity (B16-F10 [39]): Active
- Activity (B16-F10 [40]): Active; Compared With Nm And Mb + Irradiation Group Â?? Compound Showed More Pronounced Effect
- hemolysis at 2 h, up to 256 µM [41]: < 5%
- Activity [42]: Non-toxic
- Activity [43]: Non-toxic
- Activity [44]: Non-toxic
- Activity [45]: Non-toxic
- Activity [46]: Non-toxic
